Source: patent publication US11085056B2, “Transfection complexes and methods of using the same” (MOLECULAR TRANSFER, INC., priority 2015, dated 2021)

Experiments:
HeLa Cells [1] = assay: Transfection of HeLa cells with DOTMA/DOPE/peptide and eGFP plasmid, fluorescent plate reader; assay type: cell-based; settings: DOTMA/DOPE 1:1 plus peptide with RRRRRRRRRRRR (SEQ ID NO: 109) at n terminus; EF1Alpha eGFP plasmid; 0.01 mL complex; 42 hours
Outline: (§1)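 Cells at 60-70% confluence got DOTMA/DOPE (1:1) mixed with peptides bearing an N-terminal R12 DNA-binding tag, complexed 10 min with EF1α-eGFP plasmid (5 μg/mL in OptiMEM); 0.01 or 0.02 mL complex per well. After 42 h at 37 °C, GFP read by fluorescence plate reader and % transfected cells by microscopy, relative to lipid without peptide.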

HuVec Cells = assay: Transfection of HuVec cells with DOTMA/DOPE/peptide and eGFP plasmid, fluorescent plate reader; assay type: cell-based; settings: DOTMA/DOPE 1:1 plus peptide with RRRRRRRRRRRR (SEQ ID NO: 109) at n terminus; EF1Alpha eGFP plasmid; 0.01 mL complex; 42 hours
Outline: as §1

NL-1 iPS Cells = assay: Transfection of NL-1 iPS cells with DOTMA/DOPE/peptide and eGFP plasmid, fluorescent plate reader; assay type: cell-based; settings: DOTMA/DOPE 1:1 plus peptide with RRRRRRRRRRRR (SEQ ID NO: 109) at n terminus; EF1Alpha eGFP plasmid; 42 hours
C2C12 Cells = assay: Transfection of C2C12 cells with DOTMA/DOPE/peptide and eGFP plasmid, fluorescent plate reader; assay type: cell-based, mouse; settings: DOTMA/DOPE 1:1 plus peptide with RRRRRRRRRRRR (SEQ ID NO: 109) at n terminus; EF1Alpha eGFP plasmid; 0.02 mL complex; 42 hours
Outline: as §1

Human Fibroblast Cells = assay: Transfection of human fibroblast cells with DOTMA/DOPE/peptide and eGFP plasmid, fluorescent plate reader; assay type: cell-based; settings: DOTMA/DOPE 1:1 plus peptide with RRRRRRRRRRRR (SEQ ID NO: 109) at n terminus; EF1Alpha eGFP plasmid; 0.01 mL complex; 42 hours
Outline: as §1

Jurkat Cells = assay: Transfection of Jurkat cells with DOTMA/DOPE/peptide and eGFP plasmid, fluorescent plate reader; assay type: cell-based; settings: DOTMA/DOPE 1:1 plus peptide with RRRRRRRRRRRR (SEQ ID NO: 109) at n terminus; EF1Alpha eGFP plasmid; 0.02 mL complex; 42 hours
Outline: as §1

HeLa Cells [2] = assay: Transfection of HeLa cells with DOTMA/SEQ ID NO: 72/peptide compared with Lipofectamine 2000; assay type: cell-based; settings: fusogenic peptide 0.1 mg/mL
Outline: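 HeLa cells at 60–70% confluence received 0.01 mL of complexes of EF1Alpha eGFP plasmid (5 μg/mL in OptiMEM) with DOTMA/DOPE (1:1) plus R12-linked peptide, with fusogenic peptide at 0.1 mg/mL final. GFP read by fluorescence plate reader and microscopy (% cells transfected) after 42 h at 37 °C.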

some examined cell types = assay: Transfection expression and % cells transfected over the no peptide control; assay type: cell-based; settings: on some examined cell types
Outline: as §1

[3] = 0.1 μL of DOTMA/SEQ ID NO: 72/Peptide in well of a 96 well plate
[4] = 0.2 μL of DOTMA/SEQ ID NO: 72/Peptide in well of a 96 well plate
[5] = 0.3 μL of DOTMA/SEQ ID NO: 72/Peptide in well of a 96 well plate
[6] = 0.4 μL of DOTMA/SEQ ID NO: 72/Peptide in well of a 96 well plate

| Substance | RF (Relative Fluorescence) of Transfection of HeLa Cells (HeLa Cells [1]) | RF (Relative Fluorescence) of Transfection of HuVec Cells (HuVec Cells) | RF (Relative Fluorescence) of Transfection of NL-1 iPS Cells (NL-1 iPS Cells) | RF (Relative Fluorescence) of Transfection of C2C12 Cells (C2C12 Cells) | RF (Relative Fluorescence) of Transfection of Human Fibroblast Cells (Human Fibroblast Cells) | RF (Relative Fluorescence) of Transfection of Jurkat Cells (Jurkat Cells) | RF (Relative Fluorescence), DOTMA/SEQ ID NO: 72/Peptide, HeLa Cells (HeLa Cells [2]; [3]) | RF (Relative Fluorescence), DOTMA/SEQ ID NO: 72/Peptide, HeLa Cells (HeLa Cells [2]; [4]) | RF (Relative Fluorescence), DOTMA/SEQ ID NO: 72/Peptide, HeLa Cells (HeLa Cells [2]; [5]) | RF (Relative Fluorescence), DOTMA/SEQ ID NO: 72/Peptide, HeLa Cells (HeLa Cells [2]; [6]) | transfection expression and the % cells transfected over the no peptide control (some examined cell types) |
| --- | --- | --- | --- | --- | --- | --- | --- | --- | --- | --- | --- |
| 377 (TAGSCLRRFSTM; Peptidic transfection agent) [compound 377] | 15091 | 9326 | 5474 | 1710 | 6638 | 6785 | 39115 | 40072 | 32914 | 22457 | increased |
| 379 (TAGSCLRKF; Peptidic transfection agent) [compound 379] | 27424 | 14573 | 6894 | 3189 | 8520 | 7711 | 50018 | 47049 | 39036 | 26448 | increased |
| 381 (TAGSCL; Peptidic transfection agent) [compound 381] | 22652 | 17542 | 9644 | 8834 | 9953 | 10806 | 34187 | 37463 | 27007 | 20088 | increased |
| 450 (TAGSCLRKFSCL; Peptidic transfection agent) [compound 450] | 21045 | 20911 | 29856 | 3795 | 6996 | 8779 | 11962 | 17346 | 12553 | 10241 | increased |
| 452 (CNYYSNSYSFWLASLNPER; Peptidic transfection agent) [compound 452] | 13888 | 1841 | 10349 | 21798 | 2779 | 2554 | 6276 | 12671 | 12047 | 10918 | increased |
| 454 (TGLSCLQRFTTM; Peptidic transfection agent) [compound 454] | 34550 | 13336 | 18100 | 9280 | 7568 | 8224 | 34033 | 37099 | 27412 | 16023 | increased |
| 503 (TAGSCLRKFSTMRRRRRRRRRRRR; Peptidic transfection agent) [compound 503] | 25368 | 12123 | 19014 | 3973 | 13085 | 9411 | 12827 | 20006 | 17101 | 16206 | increased |
